The values below come from patent US20260199367A1, “PLK1 DEGRADATION INDUCING COMPOUNDS WITH INCREASED RIGIDITY” (UPPTHERA, INC., priority 2022, published 2026).

pIC50: −log10 of the molar value.

Assay type in all cases: cell-based
One test has as its system NCI-H69 (H69) cell line. Briefly: Cell viability assay for NCI-H69 cell line. The following applies: Homo sapiens, NCI-H69, 120 h, 5 days, EZ-Cytox, 0.46-3000 nM. The text has this: (§1) The NCI-H69 (hereafter H69) and NCI-H526 (hereafter H526) cell lines were purchased from Korea Cell Line Bank (KCLB, Seoul, Korea). For cell culture, RPMI 1640 (Gibco, Cat. No. 22400-089; Lot. No. 2537146), FBS (Gibco, Cat. No. 16000-044; Lot. No. 2511328P), Penicillin/Streptomycin (PS) (Gibco, Cat. No. 15140-122; Lot. No. 2441887), 75T cell culture flask (SPL, Cat. No. 71075), 175T cell culture flask (SPL, Cat. No. 71175), 96-well cell culture plate (SPL, Cat. No. 30096), PBS pH 7.4 (Gibco, Cat. No. 10010-023; Lot. No. 2509235), TrypLE™ Express (Gibco, Cat. No. 12605-010; Lot. No. 2323417), Cell Counter (Hematocytometer)(As one, Cat. No. 4-458-01), and 0.4% Trypan Blue Solution (DYNEBIO, Cat. No. CBT3710; Lot. No. 20221111) were used.
(§2) The compounds of Examples were completely dissolved in DMSO (Sigma-Aldrich Cat. No. D2438, Lot. No. RNBL7287) and used in the experiment. 3×10^4 cells were seeded for each well of a 96-well plate (SPL), and the cells were cultured in total volume of 150 μl. Each compound was diluted 3-folds from the highest concentration of 3000 nM to the lowest concentration of 0.46 nM. After treating the compound to each well to make the total volume of 200 μl, it was cultured in a CO2 incubator (Thermo Fisher Science, Cat. No. 4111) for 5 days. Then, after treating EZ-Cytox (DOGEN, Cat.NO. EZ-3000, Lot. No. DLS2308) 20 μl in each well, it was cultured in CO2 incubator for 4 hours. The absorbance of the completely cultured sample was measured by setting the wavelength of a plate reader (BMG Labtech, CLARIOstar Plus) to […], and was measured after shaking for 3 minutes in a plate reader before measurement.
(§3) (A: IC50 is less than 20 nM, B: IC50 is 50 nM or less, C: IC50 is 100 nM or less)

Test [1] has as its system NCI-H526 (H526) cell line. Nature of the test: Cell viability assay for NCI-H526 cell line. The following applies: Homo sapiens, NCI-H526, 120 h, 5 days, EZ-Cytox, 0.46-3000 nM.
Source text: as §1, §2, §3

For a further test, the target named is T1, PLK1 (Homo sapiens, UniProt P53350).
T1 construct: endogenous in cells; host or cells: HeLa LgBit (PLK1-HiBit KI): HeLa cells stably expressing LgBit, with CRISPR/Cas9 knock-in of HiBit at the endogenous PLK1 locus
T1 sequence (P53350 whole entry): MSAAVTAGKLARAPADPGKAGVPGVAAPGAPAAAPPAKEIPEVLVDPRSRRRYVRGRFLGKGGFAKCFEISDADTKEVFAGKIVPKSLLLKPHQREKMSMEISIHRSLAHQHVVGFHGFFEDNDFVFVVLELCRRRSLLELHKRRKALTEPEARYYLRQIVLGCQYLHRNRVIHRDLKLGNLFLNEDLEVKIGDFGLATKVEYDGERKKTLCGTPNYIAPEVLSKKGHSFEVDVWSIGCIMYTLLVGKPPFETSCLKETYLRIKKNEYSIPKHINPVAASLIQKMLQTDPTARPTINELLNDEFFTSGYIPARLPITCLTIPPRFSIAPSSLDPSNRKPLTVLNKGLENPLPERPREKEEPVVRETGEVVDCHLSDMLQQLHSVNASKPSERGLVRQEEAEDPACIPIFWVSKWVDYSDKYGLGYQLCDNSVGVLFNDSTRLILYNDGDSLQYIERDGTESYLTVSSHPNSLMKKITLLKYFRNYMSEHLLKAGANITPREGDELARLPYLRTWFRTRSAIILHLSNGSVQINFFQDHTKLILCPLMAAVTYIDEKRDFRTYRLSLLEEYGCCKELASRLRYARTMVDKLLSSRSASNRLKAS
Briefly: Luciferase assay for PLK1 in HeLa LgBit (PLK1-HiBit KI) cell line. The following applies: released after thymidine block, compound 300 nM, luminescence after 9 hours. On the procedure:
A HeLa cell line in which the LgBit vector was transfected and expressed stably was prepared. Then, after constructing gRNA and donor to express the HiBit amino acid sequence behind the C-terminal of the PLK1 gene, which was inherent in the cell, it was inserted into the cell together with a vector capable of expressing CRISPR/Cas9. Only the cells in which the insertion was completed and knock-in had progressed were selected, sub-cultured and used.
The compounds of Examples were completely dissolved in DMSO (Sigma-Aldrich Cat. No. D2438, Lot. No. RNBL5438) and used in the experiment.
In the case of HeLa LgBit (Plk1-HiBit KI), the compounds were treated after being released after thymidine block, and the process was as follows. Thymidine (Sigma-Aldrich Cat. No. T9250-5G) was completely dissolved in ddH2O and used in the experiment. For thymidine block, the products were treated with 2 mM of thymidine and then incubated for 24 hours. For release and chemical treatment, the medium was suctioned and washed with 1×PBS. TrypLE™ was added and incubated in 37° C. CO2 incubator (Thermo Fisher Science, Cat. No. 4111) for 5 mins. Cells neutralized by adding complete media were counted through a counter. For each well of a 96-well culture plate (SPL), 3.3×10^4 cells and a total medium volume of 150 μl were seeded and incubated in a CO2 incubator.
Each cell line was incubated in a CO2 incubator for 18 hours, and Endurazine (Promega, Cat. No. N257B) was added to each well to make up 4% of the total volume. After adding compounds of Examples in a 96-well white plate (SPL) to a concentration of 300 nM, the wavelength of the plate reader (BMG Labtech, CLARIOstar Plus) was set to 470-480 nM, and then the luminescence was tracked in real time.
In general terms: The HiBiT peptide binds its large partner to form an active luciferase.

As to `CC[C@@H]1C(=O)N(C)c2cnc(Nc3ccc(C(=O)NN4CCC(C(N)CN5CCN(c6ccc(C7CCC(=O)NC7=O)cc6F)CC5)CC4)cc3OC)nc2N1C1CCCC1` (stereo partly drawn) [Compound 19, N-(4-(1-amino-2-(4-(4-(2,6-dioxopiperidin-3-yl)-2-fluorophenyl)piperazin-1-yl)ethyl)piperidin-1-yl)-4-(((R)-8-cyclopentyl-7-ethyl-5-methyl-6-oxo-5,6,7,8-tetrahydropteridin-2-yl)amino)-3-methoxybenzamide], the pIC50 (in the test with NCI-H69 (H69) cell line; in test [1]) was at least 7.30 each time. Moreover, at PLK1, the “Value (luminescence value, PLK1-HiBit)” value is given as 0.132.

In the case of `COc1cc(C(=O)NN2CCC(C(N)CN3CCN(c4ccc(C5CCC(=O)NC5=O)cc4F)CC3)CC2)ccc1Nc1ncc2c(n1)N(C(C)C)CC(F)(F)C(=O)N2C` (stereo not drawn) [Compound 31, N-(4-(1-amino-2-(4-(4-(2,6-dioxopiperidin-3-yl)-2-fluorophenyl)piperazin-1-yl)ethyl)piperidin-1-yl)-4-((7,7-difluoro-9-isopropyl-5-methyl-6-oxo-6,7,8,9-tetrahydro-5H-pyrimido[4,5-b][1,4]diazepin-2-yl)amino)-3-methoxybenzamide], the negative-log IC50 (pIC50) (in the test with NCI-H69 (H69) cell line; in test [1]) was at least 7.30 in each case. In addition, at PLK1, the “Value (luminescence value, PLK1-HiBit)” value is given as 0.241.

`CC[C@@H]1C(=O)N(C)c2cnc(Nc3ccc(C(=O)NC4CCC(N5CCN(CCNc6ccc(C7CCC(=O)NC7=O)cc6)CC5)CC4)cc3OC)nc2N1C1CCCC1` (stereo partly drawn) [Compound 1, 4-(((R)-8-cyclopentyl-7-ethyl-5-methyl-6-oxo-5,6,7,8-tetrahydropteridin-2-yl)amino)-N-((1r,4R)-4-(4-(2-((4-(2,6-dioxopiperidin-3-yl)phenyl)amino)ethyl)piperazin-1-yl)cyclohexyl)-3-methoxybenzamide]: the pIC50 (in the test on NCI-H69 (H69) cell line; in test [1]) was over 7.70 throughout. Also, the “Value (luminescence value, PLK1-HiBit)” value at PLK1 was determined as 0.139.

Consider `CC[C@@H]1C(=O)N(C)c2cnc(Nc3ccc(C(=O)NN4CCC(N5CCC(CNc6ccc(C7CCC(=O)NC7=O)cc6)CC5)CC4)cc3OC)nc2N1C1CCCC1` (stereo partly drawn) [Compound 21, 4-(((R)-8-cyclopentyl-7-ethyl-5-methyl-6-oxo-5,6,7,8-tetrahydropteridin-2-yl)amino)-N-(4-(((4-(2,6-dioxopiperidin-3-yl)phenyl)amino)methyl)-[1,4′-bipiperidin]-1′-yl)-3-methoxybenzamide], for which the pIC50 (with NCI-H69 (H69) cell line; in test [1]) was over 7.70 each time. Also, the “Value (luminescence value, PLK1-HiBit)” value on PLK1 amounted to 0.144.

Regarding `CC[C@@H]1C(=O)N(C)c2cnc(Nc3ccc(C(=O)NC4CCC(NCC5CCN(c6ccc(C7CCC(=O)NC7=O)cc6F)CC5)CC4)cc3OC)nc2N1C1CCCC1` (stereo partly drawn) [Compound 18, 4-(((R)-8-cyclopentyl-7-ethyl-5-methyl-6-oxo-5,6,7,8-tetrahydropteridin-2-yl)amino)-N-((1r,4R)-4-(((1-(4-(2,6-dioxopiperidin-3-yl)-2-fluorophenyl)piperidin-4-yl)methyl)amino)cyclohexyl)-3-methoxybenzamide], the pIC50 (in the test on NCI-H69 (H69) cell line; in test [1]) was over 7.70 in each case. The “Value (luminescence value, PLK1-HiBit)” value at PLK1 was determined as 0.111.

Consider `CC[C@@H]1C(=O)N(C)c2cnc(Nc3ccc(C(=O)NC4CCN(C(=O)CCN5CCN(c6ccc(NC7CCC(=O)NC7=O)cc6)CC5)CC4)cc3OC(F)(F)F)nc2N1C1CCCC1` (stereo partly drawn) [Compound 14, 4-(((R)-8-cyclopentyl-7-ethyl-5-methyl-6-oxo-5,6,7,8-tetrahydropteridin-2-yl)amino)-N-(1-(3-(4-(4-((2,6-dioxopiperidin-3-yl)amino)phenyl)piperazin-1-yl)propanoyl)piperidin-4-yl)-3-(trifluoromethoxy)benzamide], for which the pIC50 in the test on NCI-H69 (H69) cell line is at least 7.30; in test [1], over 7.70. The “Value (luminescence value, PLK1-HiBit)” value on PLK1 was determined as 0.269.

As for `CC[C@@H]1C(=O)N(C)c2cnc(Nc3ccc(C(=O)NC4CCN(C5CCN(CCc6ccc(C7CCC(=O)NC7=O)cc6)CC5)CC4)cc3OC)nc2N1C1CCCC1` (stereo partly drawn) [Compound 22, 4-(((R)-8-cyclopentyl-7-ethyl-5-methyl-6-oxo-5,6,7,8-tetrahydropteridin-2-yl)amino)-N-(1′-(4-(2,6-dioxopiperidin-3-yl)phenethyl)-[1,4′-bipiperidin]-4-yl)-3-methoxy benzamide], the negative-log IC50 (pIC50) was at least 7.30 with NCI-H69 (H69) cell line and over 7.70 in test [1]. Also, the “Value (luminescence value, PLK1-HiBit)” value at PLK1 is reported as 0.145.

Regarding `CC[C@@H]1C(=O)N(C)c2cnc(Nc3ccc(C(=O)NC4CCC(N5CCC(NCc6ccc(C7CCC(=O)NC7=O)cc6)CC5)CC4)cc3OC)nc2N1C1CCCC1` (stereo partly drawn) [Compound 8, 4-(((R)-8-cyclopentyl-7-ethyl-5-methyl-6-oxo-5,6,7,8-tetrahydropteridin-2-yl)amino)-N-((1r,4R)-4-(4-((4-(2,6-dioxopiperidin-3-yl)benzyl)amino)piperidin-1-yl)cyclohexyl)-3-methoxybenzamide], the negative logarithm of the IC50 (pIC50) (with NCI-H69 (H69) cell line; in test [1]) was over 7.70 each time. The “Value (luminescence value, PLK1-HiBit)” value on PLK1 worked out at 0.279.

`CC[C@@H]1C(=O)N(C)c2cnc(Nc3ccc(C(=O)NC4CCC(N5CCC(CNCc6ccc(C7CCC(=O)NC7=O)cc6)CC5)CC4)cc3OC)nc2N1C1CCCC1` (stereo partly drawn) [Compound 7, 4-(((R)-8-cyclopentyl-7-ethyl-5-methyl-6-oxo-5,6,7,8-tetrahydropteridin-2-yl)amino)-N-((1r,4R)-4-(4-(((4-(2,6-dioxopiperidin-3-yl)benzyl)amino)methyl)piperidin-1-yl)cyclohexyl)-3-methoxybenzamide]: the pIC50 with NCI-H69 (H69) cell line is at least 7.30; in test [1], over 7.70. Further, on PLK1, the “Value (luminescence value, PLK1-HiBit)” value was 0.214.

With `COc1cc(C(=O)NCC2CCN(CC3CCN(c4ccc(NC5CCC(=O)NC5=O)cc4)CC3)CC2)ccc1Nc1ncc2c(n1)N(C1CCCC1)CC(F)(F)C(=O)N2C` (stereo not drawn) [Compound 28, 4-((9-cyclopentyl-7,7-difluoro-5-methyl-6-oxo-6,7,8,9-tetrahydro-5H-pyrimido[4,5-b][1,4]diazepin-2-yl)amino)-N-((1-((1-(4-((2,6-dioxopiperidin-3-yl)amino)phenyl)piperidin-4-yl)methyl)piperidin-4-yl)methyl)-3-methoxybenzamide], the pIC50 is at least 7.00 in the test with NCI-H69 (H69) cell line and at least 7.30 in test [1]. In addition, the “Value (luminescence value, PLK1-HiBit)” value at PLK1 is on record as 0.259.

Regarding `CC[C@@H]1C(=O)N(C)c2cnc(Nc3ccc(C(=O)N[C@H]4CC[C@H](NCC5CCN(c6ccc(C7CCC(=O)NC7=O)nc6)CC5)CC4)cc3OC)nc2N1C1CCCC1` (stereo partly drawn) [Compound 25, 4-(((R)-8-cyclopentyl-7-ethyl-5-methyl-6-oxo-5,6,7,8-tetrahydropteridin-2-yl)amino)-N-((1r,4R)-4-(((1-(6-(2,6-dioxopiperidin-3-yl)pyridin-3-yl)piperidin-4-yl)methyl)amino)cyclohexyl)-3-methoxybenzamide], the pIC50 (in the test with NCI-H69 (H69) cell line; in test [1]) was over 7.70 in each case. The “Value (luminescence value, PLK1-HiBit)” value at PLK1 is reported as 0.144.

By pIC50 is commonly meant the IC50 on a negative log10 scale, so that one unit is a factor of ten.
